Measurements reported in patent US20230053688A1, “METHODS TO ALTER LATENCY IN EBV+ MALIGNANCIES” (Cornell University, priority 2020, published 2023).
Counter-ions that a name gives are not always drawn. Like-named read-outs stand apart in the source and are kept apart here.

Tested on: LMP1 expression in Kem I cells
Assay: microbe, parasite or virus in culture
Assay type: cell-based, EBV
Settings: for fold induction at 2.5 µM / fold induction at 1 µM: human gammaherpesvirus 4, 48 h; for Average LMP1 Fold Increase / Replicate 1-LMP1 Fold Increase / Replicate 2-LMP1 Fold Increase: Kem I cells, 2.5 uM, 48 hours; for Average LMP1 Fold Increase: average of replicates 1 and 2; for Replicate 1-LMP1 Fold Increase / Replicate 2-LMP1 Fold Increase: fold change in LMP1 transcript vs vehicle
[1] = read-out: Average LMP1 Fold Increase, Kem I cells, 2.5 uM, 48 hours, average of replicates 1 and 2
[2] = read-out: Replicate 1-LMP1 Fold Increase, Kem I cells, 2.5 uM, 48 hours, fold change in LMP1 transcript vs vehicle
[3] = read-out: Replicate 2-LMP1 Fold Increase, Kem I cells, 2.5 uM, 48 hours, fold change in LMP1 transcript vs vehicle

SMILES | fold induction at 2.5 µM [1] | fold induction at 2.5 µM [2] | fold induction at 2.5 µM [3] | Average LMP1 Fold Increase | Replicate 1-LMP1 Fold Increase | Replicate 2-LMP1 Fold Increase | further results
COc1ccc(C(=O)N2CCCC2=O)cc1 [Aniracetam] | 0.55 | 0.72 | 0.39 | – | – | – | –
N#CC1(c2ccc(NC(=O)c3cccnc3NCc3ccncc3)cc2)CCCC1 [Apatinib] | 0.87 | 1.23 | 0.5 | – | – | – | –
O=c1cc(-c2ccc(O)cc2)oc2cc(O)cc(O)c12 [Apigenin] | 0.58 | 0.69 | 0.47 | – | – | – | –
COc1ccc(-n2nc(C(N)=O)c3c2C(=O)N(c2ccc(N4CCCCC4=O)cc2)CC3)cc1 [Apixaban] | 0.32 | 0.4 | 0.24 | – | – | – | –
O=C1C(=O)N(Cc2ccc(Cl)c(Cl)c2)c2ccccc21 [Apoptosis Activator 2] | – | – | – | 0.82 | 0.87 | 0.78 | –
C[C@@H](O[C@H]1OCCN(Cc2n[nH]c(=O)[nH]2)[C@H]1c1ccc(F)cc1)c1cc(C(F)(F)F)cc(C(F)(F)F)c1 [Aprepitant] | 0.99 | 1.58 | 0.41 | – | – | – | –
O=C(O)c1cccc(-c2noc(-c3ccccc3F)n2)c1 [Ataluren (PTC124)] | – | – | – | 0.49 | 0.50 | 0.48 | –
CN(C)C(=O)Nc1cccc(-c2ccc(N(C)C)cc2)c1 [Atglistatin] | – | – | – | 0.99 | 0.75 | 1.23 | –
CC(C)c1c(C(=O)Nc2ccccc2)c(-c2ccccc2)c(-c2ccc(F)cc2)n1CC[C@@H](O)C[C@@H](O)CC(=O)[O-].CC(C)c1c(C(=O)Nc2ccccc2)c(-c2ccccc2)c(-c2ccc(F)cc2)n1CC[C@@H](O)C[C@@H](O)CC(=O)[O-].[Ca+2] [Atorvastatin Calcium] | – | – | – | 0.09 | 0.05 | 0.14 | –
Cn1c(=O)n(-c2ccc(C(C)(C)C#N)cc2)c2c3cc(-c4cnc5ccccc5c4)ccc3ncc21 [BEZ 235] | – | – | – | – | – | – | fold induction at 1 µM (read-out: Average LMP1 Fold Increase, Kem I cells, 1 uM, 48 hours, average of replicates 1 and 2): 13.3; fold induction at 1 µM (read-out: Replicate 1-LMP1 Fold Increase, Kem I cells, 1 uM, 48 hours, fold change in LMP1 transcript vs vehicle): 17.4; fold induction at 1 µM (read-out: Replicate 2-LMP1 Fold Increase, Kem I cells, 1 uM, 48 hours, fold change in LMP1 transcript vs vehicle): 9.2
CCN1CCN(c2ccc(Nc3cc(N(C)C(=O)Nc4c(Cl)c(OC)cc(OC)c4Cl)ncn3)cc2)CC1 [BGJ398 (NVP-BGJ398)] | – | – | – | 0.85 | 1.02 | 0.69 | –
CC[C@@H]1C(=O)N(C)c2cnc(Nc3ccc(C(=O)NC4CCN(C)CC4)cc3OC)nc2N1C1CCCC1 [BI 2536] | 12.6 | 23.3 | 1.89 | – | – | – | –
CC(C)CCN1c2nc(Nc3cc(F)c(O)c(F)c3)ncc2N(C)C(=O)C1C (stereo not drawn) [BI-D1870] | – | – | – | 0.50 | 0.47 | 0.52 | –
C/C(=C\C(=O)Nc1ccccc1C(=O)O)c1ccc2ccccc2c1 [BIBR 1532] | – | – | – | 0.77 | 0.63 | 0.91 | –
COc1ccc2c(c1)c(CC(=O)N1CCOCC1)c(C)n2C(=O)c1ccc(Cl)cc1 [BML-190] | – | – | – | 0.77 | 1.01 | 0.53 | –
COc1ccnc2[nH]cc(C(=O)C(=O)N3CCN(C(=O)c4ccccc4)C[C@H]3C)c12 [BMS-378806] | – | – | – | 0.64 | 0.75 | 0.53 | –
Cn1c(N2CCCCS2(=O)=O)nc(C(=O)NCc2ccc(F)cc2)c(O)c1=O [BMS-707035] | 43.1 | 18.2 | 68 | – | – | – | –
O=C(Oc1cc(S(=O)(=O)c2ccccc2)ccc1[N+](=O)[O-])c1ccc(Cl)cc1 [BTB06584] | – | – | – | 1.22 | 1.23 | 1.20 | –
O=C(Nc1cccc(Nc2ncc(Br)c(NCCc3cnc[nH]3)n2)c1)N1CCCC1 [BX-912] | – | – | – | 0.37 | 0.40 | 0.35 | –
CNC(=O)[C@H](Cc1ccccc1)NC(=O)[C@H](CC(C)C)[C@H](CSc1cccs1)C(=O)NO [Batimastat (BB-94)] | – | – | – | 0.46 | 0.38 | 0.55 | –
Cc1c(-c2ccc(O)cc2)n(Cc2ccc(OCCN3CCCCCC3)cc2)c2ccc(O)cc12 [Bazedoxifene HCl] | 0.54 | 0.52 | 0.56 | – | – | – | –
O=C(/C=C/c1cccc(S(=O)(=O)Nc2ccccc2)c1)NO [Belinostat (PXD101)] | – | – | – | 51.63 | 17.40 | 85.87 | –

SMILES | fold induction at 2.5 µM [1] | fold induction at 2.5 µM [2] | fold induction at 2.5 µM [3] | Average LMP1 Fold Increase | Replicate 1-LMP1 Fold Increase | Replicate 2-LMP1 Fold Increase | further results
COc1c(O)cc2c(c1O)[C@@H]1O[C@H](CO)[C@@H](O)[C@H](O)[C@H]1OC2=O [Bergenin] | 0.86 | 0.65 | 1.07 | – | – | – | –
CC[C@H](NC(=O)[C@H](C)NC)C(=O)N1C[C@@H](O)C[C@H]1Cc1c(-c2[nH]c3cc(F)ccc3c2C[C@@H]2C[C@H](O)CN2C(=O)[C@H](CC)NC(=O)[C@H](C)NC)[nH]c2cc(F)ccc12 [Birinapant] | 1.03 | 1.05 | 1.02 | – | – | – | –
CC(C)NCC(O)COc1ccc(COCCOC(C)C)cc1 (stereo not drawn) [Bisoprolol fumarate] | 1.07 | 0.41 | 1.73 | – | – | – | –
CC(C)C[C@H](NC(=O)[C@H](Cc1ccccc1)NC(=O)c1cnccn1)B(O)O [Bortezomib (PS-341)] | – | – | – | 77.22 | 150.06 | 4.38 | –
COc1ccccc1Oc1c(NS(=O)(=O)c2ccc(C(C)(C)C)cc2)nc(-c2ncccn2)nc1OCCO [Bosentan Hydrate] | 0.81 | 1.22 | 0.4 | – | – | – | –
COc1cc(Nc2c(C#N)cnc3cc(OCCCN4CCN(C)CC4)c(OC)cc23)c(Cl)cc1Cl [Bosutinib (SKI-606)] | – | – | – | 0.81 | 0.36 | 1.26 | –
CCN[C@H]1CN(CCCOC)S(=O)(=O)c2sc(S(N)(=O)=O)cc21 [Brinzolamide] | 0.21 | 0.23 | 0.2 | – | – | – | –
CCCCN1CCCCC1C(=O)Nc1c(C)cccc1C (stereo not drawn) [Bupivacaine HCl] | 0.59 | 0.64 | 0.53 | – | – | – | –
NC1(Cc2ccc(Cl)cc2)CCN(c2ncnc3[nH]ccc23)CC1 [CCT128930] | – | – | – | 0.59 | 0.40 | 0.78 | –
CC(C)C[C@H](NC(=O)[C@@H](NC(=O)c1cccc(-c2ccccc2)n1)[C@@H](C)O)B(O)O [CEP-18770 (Delanzomib)] | – | – | – | 96.92 | 98.21 | 95.63 | –
O=C(NC(NC(=S)Nc1ccc(F)c([N+](=O)[O-])c1)C(Cl)(Cl)Cl)C(c1ccccc1)c1ccccc1 (stereo not drawn) [CGK 733] | – | – | – | 0.71 | 0.58 | 0.84 | –
Nc1ncnc2n[nH]c(Nc3ccc(F)cc3)c12 [CGP 57380] | – | – | – | 1.33 | 0.81 | 1.86 | –
CCNC(=O)[C@H]1O[C@@H](n2cnc3c(N)nc(NCCc4ccc(CCC(=O)O)cc4)nc32)[C@H](O)[C@@H]1O [CGS 21680 HCl] | 0.7 | 0.72 | 0.68 | – | – | – | –
O=c1[nH]c2ccc(Cl)cc2c(N[C@@H]2CN3CCC2CC3)c1-c1nc2ccccc2[nH]1 [CHIR-124] | – | – | – | 68.46 | 105.57 | 31.35 | –
Cc1[nH]c2ccccc2c1CCNC(=O)c1cccs1 [CK-636] | – | – | – | 1.27 | 0.69 | 1.84 | –
C=CC(=O)Nc1cccc(Nc2nc(Nc3ccc(Oc4ccnc(C(=O)NC)c4)cc3)ncc2F)c1 [CNX-774] | – | – | – | 0.62 | 0.51 | 0.73 | –
CN(C)C(=O)[C@H](O)[C@H](Cc1ccccc1)NC(=O)c1cc2cc(Cl)ccc2[nH]1 [CP-91149] | – | – | – | 0.64 | 0.49 | 0.80 | –
COCCOc1ccc2c(c1)ncn2-c1ccc2cccc(N3CCC(N)CC3)c2n1 [CP-673451] | 0.49 | 0.52 | 0.45 | – | – | – | –
O=C(O)c1cc2cccc([N+](=O)[O-])c2[nH]1 [CRT0044876] | – | – | – | 0.44 | 0.55 | 0.33 | –
O=C(/C=C/c1ccc(O)c(O)c1)OCCc1ccccc1 [Caffeic Acid Phenethyl Ester] | 0.46 | 0.59 | 0.33 | – | – | – | –
Cc1ccc([C@@H]2O[C@H](CO)[C@@H](O)[C@H](O)[C@H]2O)cc1Cc1ccc(-c2ccc(F)cc2)s1 [Canagliflozin] | – | – | – | 0.63 | 0.52 | 0.75 | –
CCOc1nc2cccc(C(=O)O)c2n1Cc1ccc(-c2ccccc2-c2nnn[nH]2)cc1 [Candesartan] | 0.43 | 0.34 | 0.52 | – | – | – | –
